Data: patent US10946074B2, “GLP-1 derivatives and uses thereof” (Novo Nordisk A/S, priority 2016, dated 2021)
Like-named read-outs stand apart in the source and are kept apart here. Starred links: 1 amine or outer side, 2 acyl side, 3 side chain; linkers in the order of their positions; H or OH if unused. Residues, ends and D or L forms follow the SMILES beside them. Groups on a side chain read outwards from the residue. *: point of attachment. γGlu = O=C(O)[C@H](CCC(=O)[*:2])N[*:1]; C14 diacid = O=C(O)CCCCCCCCCCCCC(=O)*; AEEA = NCCOCCOCC(=O)O

How the values were obtained:
DPP-IV = target: T1, DPP-IV (Homo sapiens, UniProt P27487); assay: In vitro DPP-IV stability (incubation with DPP-IV, LC-MS of non-degraded peptide); format: in vitro ADME; details: 10 μM peptide, DPP-IV 2 μg/ml, 37° C., samples up to 180 min
T1 construct: purchased R & D systems
T1 sequence (P27487 whole entry, species assumed): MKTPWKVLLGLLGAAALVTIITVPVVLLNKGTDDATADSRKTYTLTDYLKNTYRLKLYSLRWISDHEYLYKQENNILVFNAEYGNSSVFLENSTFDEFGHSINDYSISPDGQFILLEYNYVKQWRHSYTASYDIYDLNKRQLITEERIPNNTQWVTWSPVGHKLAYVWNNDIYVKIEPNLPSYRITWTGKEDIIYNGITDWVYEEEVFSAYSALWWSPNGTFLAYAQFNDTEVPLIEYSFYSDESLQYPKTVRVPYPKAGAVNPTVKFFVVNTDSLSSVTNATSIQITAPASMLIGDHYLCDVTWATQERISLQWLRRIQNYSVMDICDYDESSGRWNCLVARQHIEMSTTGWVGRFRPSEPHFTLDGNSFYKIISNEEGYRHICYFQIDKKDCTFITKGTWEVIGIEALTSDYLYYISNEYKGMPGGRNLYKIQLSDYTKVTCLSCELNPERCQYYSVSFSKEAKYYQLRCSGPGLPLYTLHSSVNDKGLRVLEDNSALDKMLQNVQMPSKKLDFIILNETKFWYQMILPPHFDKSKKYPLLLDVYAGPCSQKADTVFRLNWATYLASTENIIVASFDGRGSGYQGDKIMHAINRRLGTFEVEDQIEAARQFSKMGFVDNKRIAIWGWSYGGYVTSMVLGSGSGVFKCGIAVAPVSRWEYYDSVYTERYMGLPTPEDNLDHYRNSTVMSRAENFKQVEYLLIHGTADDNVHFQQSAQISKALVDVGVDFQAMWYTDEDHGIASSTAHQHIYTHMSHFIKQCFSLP
Method: The peptides are incubated in vitro in buffer with DPP-IV, samples are taken at regular intervals, the DPP-IV enzyme is inactivated to stop further degradation, and the amount of non-degraded peptide in the samples is determined using LC-MS.
Buffer A is a HEPES buffer (Gibco by Life Science, NY, USA) to which 0.005% (v/v) Tween20® Sigma-Aldrich, USA) and 0.001% (w/v) BSA (Sigma-Aldrich, USA) has been added and pH was adjusted to 7.4.
LC-MS was performed on a setup consisting of Waters Acquity UPLC system and Maxis 4G from Bruker Daltonics. […] Gradient: Linear 5%-70% mobile phase B during 8 min at 0.3 ml/min. MS was conducted in positive ionisation mode by electrospray ionisation from m/z ionisation mode and scan from m/z 300-1800.
The reactions were terminated by addition of 6 volumes of ethanol containing 1% (v/v) TFA (Biosolve BV, The Netherlands) and internal standard. The samples were analysed by LC-MS for the respective non-degraded peptide. Data was plotted according to 1st order kinetics (by GraphPad Prism) and the half-lives (T1/2) were calculated by the software and reported in minutes.

human GLP-1 receptor [1] = target: T2, human GLP-1 receptor (Homo sapiens, UniProt P43220); assay: In vitro potency, CRE luciferase reporter gene assay in BHK cells expressing the human GLP-1 receptor; format: cell-based; details: 3 h, 0% HSA, average of at least three replicates
T2 construct: expressed in transfected cells; host or cells: membranes of BHK cells (parent BHKTS13), clone FCW467-12A
T2 sequence (P43220 24-463): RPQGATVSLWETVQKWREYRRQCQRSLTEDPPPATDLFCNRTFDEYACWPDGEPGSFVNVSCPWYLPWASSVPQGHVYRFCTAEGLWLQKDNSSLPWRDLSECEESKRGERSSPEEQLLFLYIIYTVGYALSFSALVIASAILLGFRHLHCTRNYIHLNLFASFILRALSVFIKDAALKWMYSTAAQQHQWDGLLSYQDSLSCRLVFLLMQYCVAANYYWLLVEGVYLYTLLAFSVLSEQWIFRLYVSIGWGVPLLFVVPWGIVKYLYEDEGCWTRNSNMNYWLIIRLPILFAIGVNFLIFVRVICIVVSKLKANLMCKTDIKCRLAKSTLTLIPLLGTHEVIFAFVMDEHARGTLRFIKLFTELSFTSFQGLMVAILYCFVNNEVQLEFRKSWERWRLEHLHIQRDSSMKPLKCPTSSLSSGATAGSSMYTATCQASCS
Method: When assay incubation is completed the luciferase substrate (luciferin) is added and the enzyme converts luciferin to oxyluciferin to produce bioluminescence. The luminescence is measured as the readout for the assay.
The cells were cultured at 5% CO2 in cell culture medium. They were aliquoted and stored in liquid nitrogen. Before each assay an aliquot was taken up and washed twice in PBS before being suspended at the desired concentration in the assay specific buffer. For 96-well plates the suspension was made to give a final concentration of 5×10^3 cells/well.
Assay medium consisted of DMEM w/o phenol red, 10 mM Hepes and 1× Glutamax. The assay buffer consisted of 2% w/v ovalbumin and 0.2% v/v Pluronic F-68 in assay medium.
3) Cells were counted and adjusted to 5×10^3 cells/50 μl (1×10^5 cells/ml) in assay medium. A 50 μl aliquot of cells was transferred to each well in the assay plate.
4) Stocks of the test compounds and reference compounds were diluted to a concentration of 0.2 μM in assay buffer. […] Compounds were tested at the following final concentrations: 1×10^−7 M, 1×10^−8 M; 1×10^−9 M, 1×10^−10 M, 1×10^−11 M, 1×10^−12 M, 1×10^−13 M, and 1×10^−14 M. 6) The assay plate was incubated for 3 h in a 5% CO2 incubator at 37° C. […] 8) A 100 μl aliquot of steadylite plus reagent was added to each well of the assay plate. 9) Each assay plate was covered with aluminum foil to protect it from light and shaken for 30 min at room temperature. 10) Each assay plate was read in a BioTek Synergy 2 Multi-Mode Reader. Calculations and Results
The data from the BioTek Synergy 2 Multi-Mode Reader were transferred to GraphPad Prism software. The software performs a non-linear regression (log(agonist) vs. response (three parameters)).
A minimum of three replicates were measured for each sample. The reported EC50 values are averages of the measured values for each compound.

human GLP-1 receptor [2] = target: T2, human GLP-1 receptor; assay: GLP-1 receptor binding, competitive binding assay with 125I-GLP-1 on isolated membranes (SPA)
Method: The receptor binding is reported as the concentration at which half of the labelled ligand is displaced from the receptor, the IC50 value.
Buffer 1 consisted of 20 mM Na-HEPES plus 10 mM EDTA and pH was adjusted to 7.4. Buffer 2 consisted of 20 mM Na-HEPES plus 0.1 mM EDTA and pH was adjusted to 7.4. Assay buffer consisted of 50 mM HEPES supplemented with 5 mM EGTA, 5 mM MgCl2, 0.005% w/v Tween 20 and pH was adjusted to 7.4. An 8% albumin stock consisted of HSA dissolved at 8% (w/v) in assay buffer. An 0.02% albumin stock consisted of HSA dissolved at 0.02% (w/v) in assay buffer.
To make a membrane preparation the cells were grown to approximately 80% confluence. The cells were washed twice in phosphate-buffered saline and harvested. The cells were pelleted using a brief centrifugation and the cell pellet was kept on ice. The cell pellet was homogenised with ULTRA-THURRAX™ dispersing instrument for 20-30 seconds in a suitable amount of buffer 1 (e.g., 10 ml). The homogenate was centrifuged for 15 minutes. The pellet was re-suspended (homogenised) in 10 ml buffer 2 and centrifuged. This step was repeated once more. The resulting pellet was re-suspended in buffer 2 and the protein concentration was determined. The membranes were aliquoted and stored at minus 80° C.
For the receptor binding assay in the presence of low HSA (0.005% (w/v)) 50 μl of the assay buffer was added to each well of an assay plate. Assay continued with step 3.
For the receptor binding assay in the presence of high HSA (2% (w/v)) 50 μl of the 8% (w/v) albumin stock was added to each well of an assay plate. Assay continued with step 3.
Cell membrane aliquots were thawed and diluted to their working concentration. Fifty μl were added to each well in the assay plate.
WGA SPA beads were suspended in assay buffer at 20 mg/ml. The suspension was diluted to 10 mg/ml in assay buffer just prior to addition to the assay plate. Fifty μl were added to each well in the assay plate.
A 25 μl aliquot was reserved for measuring total counts/well.
The assay plate was incubated for 2 h at 30° C.
The assay plate was centrifuged for 10 min.
The assay plate was read in a Packard TopCount NXT instrument.
Individual replicates were analysed using non-linear regression in GraphPad Prism. IC50 values were calculated by the software and reported in nM. A minimum of two replicates was measured for each sample. The reported values are averages of all of the measured values for each compound.

[3] = high HSA (2.0% (w/v) final assay concentration), read-out: GLP-1 receptor binding High HSA IC50
[4] = low HSA (max. 0.001% (w/v) final assay concentration), read-out: GLP-1 receptor binding Low HSA IC50

Row | Structure (SMILES) | degradation by DPP-IV in vitro (in words) (DPP-IV) | EC50 (human GLP-1 receptor [1]) | IC50 (human GLP-1 receptor [2]; [3]) | IC50 (human GLP-1 receptor [2]; [4])
1 | CC[C@H](C)[C@H](NC(=O)[C@H](Cc1ccccc1)NC(=O)[C@H](CCC(=O)O)NC(=O)[C@H](CCCCN)NC(=O)[C@H](C)NC(=O)[C@H](C)NC(=O)[C@H](CCC(N)=O)NC(=O)CNC(=O)[C@H](CCC(=O)O)NC(=O)[C@H](CC(C)C)NC(=O)[C@H](Cc1ccc(O)cc1)NC(=O)[C@H](CO)NC(=O)[C@H](CO)NC(=O)[C@@H](NC(=O)[C@H](CC(=O)O)NC(=O)[C@H](CO)NC(=O)[C@@H](NC(=O)[C@H](Cc1ccccc1)NC(=O)[C@@H](NC(=O)CNC(=O)[C@H](CCC(=O)O)NC(=O)[C@H](Cc1c[nH]c2ccccc12)NC(=O)[C@@H](N)Cc1c[nH]cn1)[C@@H](C)O)[C@@H](C)O)C(C)C)C(=O)N[C@@H](C)C(=O)N[C@@H](Cc1c[nH]c2ccccc12)C(=O)N[C@@H](CC(C)C)C(=O)N[C@H](C(=O)N[C@@H](CCCCN)C(=O)NCC(=O)N[C@@H](CCCNC(=N)N)C(=O)NCC(=O)O)C(C)C [Example D, [Trp8]-GLP-1-(7-37)-Peptide] | no degradation at all was observed | – | – | –
2 | CC[C@H](C)[C@H](NC(=O)[C@H](Cc1ccccc1)NC(=O)[C@H](CCC(=O)O)NC(=O)[C@H](CCCNC(=N)N)NC(=O)[C@H](C)NC(=O)[C@H](C)NC(=O)[C@H](CCC(N)=O)NC(=O)[C@H](CCC(=O)O)NC(=O)[C@H](CCC(=O)O)NC(=O)[C@H](CC(C)C)NC(=O)[C@H](Cc1ccc(O)cc1)NC(=O)[C@H](CO)NC(=O)[C@H](CO)NC(=O)[C@@H](NC(=O)[C@H](CC(=O)O)NC(=O)[C@H](CO)NC(=O)[C@@H](NC(=O)[C@H](Cc1ccccc1)NC(=O)[C@@H](NC(=O)CNC(=O)[C@H](CCC(=O)O)NC(=O)C(C)(C)NC(=O)[C@@H](N)Cc1c[nH]cn1)[C@@H](C)O)[C@@H](C)O)C(C)C)C(=O)N[C@@H](C)C(=O)N[C@@H](Cc1c[nH]c2ccccc12)C(=O)N[C@@H](CC(C)C)C(=O)N[C@H](C(=O)N[C@@H](CCCNC(=N)N)C(=O)NCC(=O)N[C@@H](CCCNC(=N)N)C(=O)N[C@@H](CCCCNC(=O)[C@H](CCCCNC(=O)COCCOCCNC(=O)COCCOCCNC(=O)COCCOCCNC(=O)COCCOCCNC(=O)COCCOCCNC(=O)COCCOCCNC(=O)CC[C@H](NC(=O)[C@H]1CC[C@H](CNC(=O)CCCCCCCCCCCCCCCCCCC(=O)O)CC1)C(=O)O)NC(=O)COCCOCCNC(=O)COCCOCCNC(=O)COCCOCCNC(=O)COCCOCCNC(=O)COCCOCCNC(=O)COCCOCCNC(=O)CC[C@H](NC(=O)[C@H]1CC[C@H](CNC(=O)CCCCCCCCCCCCCCCCCCC(=O)O)CC1)C(=O)O)C(=O)O)C(C)C [Comparative 10A] | – | 0.0168 nM | 108 nM | 0.591 nM
3 | CC[C@H](C)[C@H](NC(=O)[C@H](Cc1ccccc1)NC(=O)[C@H](CCC(=O)O)NC(=O)[C@H](CCCNC(=N)N)NC(=O)[C@H](C)NC(=O)[C@H](C)NC(=O)[C@H](CCC(N)=O)NC(=O)[C@H](CCC(=O)O)NC(=O)[C@H](CCC(=O)O)NC(=O)[C@H](CC(C)C)NC(=O)[C@H](Cc1ccc(O)cc1)NC(=O)[C@H](CO)NC(=O)[C@H](CO)NC(=O)[C@@H](NC(=O)[C@H](CC(=O)O)NC(=O)[C@H](CO)NC(=O)[C@@H](NC(=O)[C@H](Cc1ccccc1)NC(=O)[C@@H](NC(=O)CNC(=O)[C@H](CCC(=O)O)NC(=O)C(C)(C)NC(=O)[C@@H](N)Cc1c[nH]cn1)[C@@H](C)O)[C@@H](C)O)C(C)C)C(=O)N[C@@H](C)C(=O)N[C@@H](Cc1c[nH]c2ccccc12)C(=O)N[C@@H](CC(C)C)C(=O)N[C@H](C(=O)N[C@@H](CCCNC(=N)N)C(=O)NCC(=O)N[C@@H](CCCCNC(=O)COCCOCCNC(=O)COCCOCCNC(=O)CC[C@H](NC(=O)CCCCCCCCCOc1cccc(C(=O)O)c1)C(=O)O)C(=O)N[C@@H](CCCCNC(=O)COCCOCCNC(=O)COCCOCCNC(=O)CC[C@H](NC(=O)CCCCCCCCCOc1cccc(C(=O)O)c1)C(=O)O)C(=O)O)C(C)C [Comparative 1A] | – | 0.0081 nM | 116 nM | 0.318 nM
4 | CC[C@H](C)[C@H](NC(=O)[C@H](Cc1ccccc1)NC(=O)[C@H](CCC(=O)O)NC(=O)[C@H](CCCNC(=N)N)NC(=O)[C@H](C)NC(=O)[C@H](C)NC(=O)[C@H](CCC(N)=O)NC(=O)[C@H](CCC(=O)O)NC(=O)[C@H](CCC(=O)O)NC(=O)[C@H](CC(C)C)NC(=O)[C@H](Cc1ccc(O)cc1)NC(=O)[C@H](CO)NC(=O)[C@H](CO)NC(=O)[C@@H](NC(=O)[C@H](CC(=O)O)NC(=O)[C@H](CO)NC(=O)[C@@H](NC(=O)[C@H](Cc1ccccc1)NC(=O)[C@@H](NC(=O)CNC(=O)[C@H](CCC(=O)O)NC(=O)[C@H](Cc1c[nH]c2ccccc12)NC(=O)[C@@H](N)Cc1c[nH]cn1)[C@@H](C)O)[C@@H](C)O)C(C)C)C(=O)N[C@@H](C)C(=O)N[C@@H](Cc1c[nH]c2ccccc12)C(=O)N[C@@H](CC(C)C)C(=O)N[C@H](C(=O)N[C@@H](CCCNC(=N)N)C(=O)NCC(=O)N[C@@H](CCCCNC(=O)COCCOCCNC(=O)COCCOCCNC(=O)COCCOCCNC(=O)COCCOCCNC(=O)CC[C@H](NC(=O)CCCCCCCCCCCCC(=O)O)C(=O)O)C(=O)N[C@@H](CCCCNC(=O)COCCOCCNC(=O)COCCOCCNC(=O)COCCOCCNC(=O)COCCOCCNC(=O)CC[C@H](NC(=O)CCCCCCCCCCCCC(=O)O)C(=O)O)C(=O)O)C(C)C [Example 7] (H-HWEGTFTSDVSSYLEEQAAREFIAWLVRGK([AEEA-AEEA-AEEA-AEEA-γGlu-C14 diacid])K([AEEA-AEEA-AEEA-AEEA-γGlu-C14 diacid])-OH; N-terminus and C-terminus assumed) | – | 0.0056 nM | 71 nM | –
5 | CC[C@H](C)[C@H](NC(=O)[C@H](Cc1ccccc1)NC(=O)[C@H](CCC(=O)O)NC(=O)[C@H](CCCNC(=N)N)NC(=O)[C@H](C)NC(=O)[C@H](C)NC(=O)[C@H](CCC(N)=O)NC(=O)[C@H](CCC(=O)O)NC(=O)[C@H](CCC(=O)O)NC(=O)[C@H](CC(C)C)NC(=O)[C@H](Cc1ccc(O)cc1)NC(=O)[C@H](CO)NC(=O)[C@H](CO)NC(=O)[C@@H](NC(=O)[C@H](CC(=O)O)NC(=O)[C@H](CO)NC(=O)[C@@H](NC(=O)[C@H](Cc1ccccc1)NC(=O)[C@@H](NC(=O)CNC(=O)[C@H](CCC(=O)O)NC(=O)C(C)(C)NC(=O)[C@@H](N)Cc1c[nH]cn1)[C@@H](C)O)[C@@H](C)O)C(C)C)C(=O)N[C@@H](C)C(=O)N[C@@H](Cc1c[nH]c2ccccc12)C(=O)N[C@@H](CC(C)C)C(=O)N[C@H](C(=O)N[C@@H](CCCNC(=N)N)C(=O)NCC(=O)N[C@@H](CCCCNC(=O)COCCOCCNC(=O)COCCOCCNC(=O)COCCOCCNC(=O)COCCOCCNC(=O)CC[C@H](NC(=O)CCCCCCCCCCCCC(=O)O)C(=O)O)C(=O)N[C@@H](CCCCNC(=O)COCCOCCNC(=O)COCCOCCNC(=O)COCCOCCNC(=O)COCCOCCNC(=O)CC[C@H](NC(=O)CCCCCCCCCCCCC(=O)O)C(=O)O)C(=O)O)C(C)C [Comparative 7A] | – | 0.0026 nM | 31.5 nM | 0.744 nM
